# From US20190076452A1, “THERAPEUTIC COMBINATIONS FOR TREATING NEOPLASIA” (MEDIMMUNE LIMITED, priority 2014, published 2019)
# Columns and labels:
# [1] = tested on: CT26 cells; assay: CT26 tumor model, preventative treatment before measurable tumor; type: in vivo, Balb/C mice
# Description: (§1) A CT26 model was used in several studies. CT26 cells are murine colon cancer cells. CT26 cells were obtained from the ATCC (Manassas, Va.), and were grown with RPMI supplemented with 10% fetal bovine serum. Following receipt, cell lines were re-authenticated using STR-based DNA profiling and multiplex PCR (IDEXX Bioresearch, Columbia, Mo.). Cells were grown in monolayer culture, harvested by trypsinizatin, and implanted subcutaneously into the right flank of 6-8 week old female Balb/C (CT26), C57/Bl6 (MCA205), or 4-6 week athymic female nude mice (Harlan, Indianapolis, Ind.). For the CT26 tumor model, 5×10^5 cells were implanted in the right flank using a 26-gauge needle. Antibodies were obtained from Anti-PD-1 (RMP1-14), anti-PD-L1 (10F.9G2), anti-CTLA-4 (9D9), and mouse IgG2b control (MPC-11). Mouse OX40 fusion protein (OX40 FP) and Rat IgG2a isotype control antibodies were produced by MedImmune (Gaithersburg, Md.). All antibodies and OX40 FP were dosed via intraperitoneal injection. Doxil (Bluedoor Pharma, Rockville, Md.) and doxorubicin (Henry Schein, Melville, N.Y.) were dosed via intravenous administration. In some studies, isotype controls were administered to mice as a cocktail of rat IgG2a and mouse IgG2b. At the beginning of treatment, mice were either randomized by tumor volume (established-tumor studies) or by body weight (preventative studies). The number of animals per group ranged from between 10-12 animals per group as determined based on sample size calculations using nQuery software. Both tumor and body weight measurements were collected twice weekly and tumor volume calculated using the equation (L×W^2)/2, where L and W refers to the length and width dimensions, respectively. Error bars were calculated as standard error of the mean. The general health of mice was monitored daily and all experiments were conducted in accordance to AAALAC and MedImmune IACUC guidelines for humane treatment and care of laboratory animals.
# [2] = tested on: CT26 tumors; assay: Established CT26 tumors in T cell-deficient athymic nude mice; type: in vivo; conditions: maximally tolerated doses, tumors approximately 200 mm^3, immunodeficient mice
# Description: FIG. 4A is a graph showing tumor volume in CT26 tumor-bearing athymic nude mice dosed with Doxil (5 mg/kg) or Doxorubicin (5 mg/kg) as indicated. FIG. 4B is a graph showing tumor volume in CT26 tumor-bearing Balb/C mice dosed with Doxil (5 mg/kg) or Doxorubicin (5 mg/kg) as indicated. FIG. 4C is a graph showing tumor volume in CT26 tumor-bearing athymic nude mice dosed with gemcitabine (75 mg/kg) as indicated. FIG. 4D is a graph showing tumor volume in CT26 tumor-bearing Balb/C mice dosed with gemcitabine (75 mg/kg) as indicated. FIG. 4E is a graph showing tumor volume in CT26 tumor-bearing athymic nude mice dosed with oxiplatin (8 mg/kg) as indicated. […]
# (§2) A CT26 model was used in several studies. […] The number of animals per group ranged from between 10-12 animals per group as determined based on sample size calculations using nQuery software. Both tumor and body weight measurements were collected twice weekly and tumor volume calculated using the equation (L×W^2)/2, where L and W refers to the length and width dimensions, respectively. Error bars were calculated as standard error of the mean. The general health of mice was monitored daily and all experiments were conducted in accordance to AAALAC and MedImmune IACUC guidelines for humane treatment and care of laboratory animals.
# [3] = tested on: CT26 tumors; assay: Established CT26 tumors in immunocompetent Balb/C mice; type: in vivo; conditions: maximally tolerated doses, tumors approximately 200 mm^3, immunocompetent mice
# Description: FIG. 4A is a graph showing tumor volume in CT26 tumor-bearing athymic nude mice dosed with Doxil (5 mg/kg) or Doxorubicin (5 mg/kg) as indicated. FIG. 4B is a graph showing tumor volume in CT26 tumor-bearing Balb/C mice dosed with Doxil (5 mg/kg) or Doxorubicin (5 mg/kg) as indicated. FIG. 4C is a graph showing tumor volume in CT26 tumor-bearing athymic nude mice dosed with gemcitabine (75 mg/kg) as indicated. FIG. 4D is a graph showing tumor volume in CT26 tumor-bearing Balb/C mice dosed with gemcitabine (75 mg/kg) as indicated. FIG. 4E is a graph showing tumor volume in CT26 tumor-bearing athymic nude mice dosed with oxiplatin (8 mg/kg) as indicated. FIG. 4F is a graph showing tumor volume in CT26 tumor-bearing Balb/C mice dosed with oxiplatin (8 mg/kg) as indicated. Arrows indicate dose administration.
# as §1, with “Antibodies were obtained from Anti-PD-1 (RMP1-14), anti-PD-L1 (10F.9G2), anti-CTLA-4 (9D9), and mouse IgG2b control (MPC-11). Mouse OX40 fusion protein (OX40 FP) and Rat IgG2a isotype control antibodies were produced by MedImmune (Gaithersburg, Md.). All antibodies and OX40 FP were dosed via intraperitoneal injection. Doxil (Bluedoor Pharma, Rockville, Md.) and doxorubicin (Henry Schein, Melville, N.Y.) were dosed via intravenous administration. In some studies, isotype controls were administered to mice as a cocktail of rat IgG2a and mouse IgG2b. At the beginning of treatment, mice were either randomized by tumor volume (established-tumor studies) or by body weight (preventative studies).” left out
# [4] = tested on: xenograft model; conditions: T-cell dependent mechanism; cited from earlier work
# [5] = tested on: CT26 tumors; assay: Established CT26 tumor model, Doxil combined with immunotherapies; type: in vivo, Balb/C mice; conditions: maximally efficacious doses
# Description: FIGS. 5A-5L show synergistic anti-tumor responses of Doxil in combination with multiple immunotherapies in an established CT26 tumor model. FIG. 5A is a graph depicting tumor volume in untreated mice. FIG. 5B is a graph depicting tumor volume in mice administered Doxil. FIG. 5C is a graph depicting tumor volume in mice administered OX40L fusion protein (FP). FIG. 5D is a graph depicting tumor volume in mice administered α-PD-1. FIG. 5E is a graph depicting tumor volume in mice administered α-PD-L1. FIG. 5F is a graph depicting tumor volume in mice administered α-CTLA-4. FIG. 5G is a graph depicting tumor volume in mice administered GITR ligand fusion protein (GITRL FP). FIG. 5H is a graph depicting tumor volume in mice administered Doxil+OX40L FP. […]
# as §2, with “animals. […]” for “animals.”
# [6] = tested on: MCA205 tumors; assay: Established MCA205 syngeneic tumor model; type: in vivo, C57/Bl6 mice; conditions: maximally efficacious doses
# Description: FIGS. 7A-7L show synergistic anti-tumor responses of Doxil in combination with α-PD-1, α-PD-L1 and α-CTLA-4 antibodies in the MCA205 syngeneic model. FIG. 7A is a graph depicting tumor volume in untreated mice. FIG. 7B is a graph depicting tumor volume in mice administered Doxil. FIG. 7C is a graph depicting tumor volume in mice administered OX40L fusion protein (FP). FIG. 7D is a graph depicting tumor volume in mice administered α-PD-1. FIG. 7E is a graph depicting tumor volume in mice administered α-PD-L1. FIG. 7F is a graph depicting tumor volume in mice administered α-CTLA-4. FIG. 7G is a graph depicting tumor volume in mice administered GITR ligand fusion protein (GITRL FP). […]
# As CT26 is highly sensitive to immunotherapies, it was determined whether Doxil could enhance the activity of immunotherapies in a less sensitive model, MCA205. […]
# MCA205 cells were obtained from Agonox (Portland, Oreg.) and grown in RPMI supplemented with 10% fetal bovine serum. […] The number of animals per group ranged from between 10-12 animals per group as determined based on sample size calculations using nQuery software. Both tumor and body weight measurements were collected twice weekly and tumor volume calculated using the equation (L×W^2)/2, where L and W refers to the length and width dimensions, respectively. Error bars were calculated as standard error of the mean. […]
molecule,measurement,setting,value
"COc1cccc2c1C(=O)c1c(O)c3c(c(O)c1C2=O)C[C@@](O)(C(=O)CO)C[C@@H]3O[C@H]1C[C@H](N)[C@H](O)[C@H](C)O1 [Doxorubicin, doxorubicin]",No. of CRs,[1]; 1 mg/kg,0/10
same,No. of CRs,[1]; 4 mg/kg,2/10
same,number of complete responders,[1]; doxorubicin 4 mg/kg alone or combined with antibody,2 animals
same,anti-tumor activity,[2],did not elicit anti-tumor activity
same,anti-tumor activity,[3],did not elicit anti-tumor activity
Nc1ccn([C@@H]2O[C@H](CO)[C@@H](O)C2(F)F)c(=O)n1 [gemcitabine],anti-tumor activity,[2],significant anti-tumor activity
same,anti-tumor activity,[3],significant anti-tumor activity
O=C1[O][Pt]2([NH][C@@H]3CCCC[C@H]3[NH]2)[O]C1=O [Oxaliplatin],anti-tumor activity,[3],increased antitumor activity
"MEDI4736: human monoclonal antibody directed against human PD-L1 (antibody, V domains shown) VH: EVQLVESGGGLVQPGGSLRLSCAASGFTFSRYWMSWVRQAPGKGLEWVANIKQDGSEKYYVDSVKGRFTISRDNAKNSLYLQMNSLRAEDTAVYYCAREGGWFGELAFDYWGQGTLVTVSS VL: EIVLTQSPGTLSLSPGERATLSCRASQRVSSSYLAWYQQKPGQAPRLLIYDASSRATGIPDRFSGSGSGTDFTLTISRLEPEDFAVYYCQQYGSLPWTFGQGTKVEIK",tumor growth,[4],inhibits tumor growth
"OX40 FP: mouse OX40 fusion protein produced by MedImmune (protein, left off: a dimerising Fc or GST, mouse OX40 fusion protein produced by MedImmune) SSSPAKDPPIQRLRGAVTRCEDGQLFISSYKNEYQTMEVQNNSVVIKCDGLYIIYLKGSFFQEVKIDLHFREDHNPISIPMLNDGRRIVFTVVASLAFKDKVYLTVNAPDTLCEHLQINDGELIVVQLTPGYCAPEGSYHSTVNQVPL",anti-tumor activity,[5]; tumors 200-300 mm^3,low to moderate activity
same,complete responders,"[5]; tumors 200-300 mm^3, out of 12 mice",a few
same,anti-tumor activity,[6]; tumors 100-150 mm^3,minimally active
same,complete response,"[6]; tumors 100-150 mm^3, out of 12 mice",one
